Where a name gives a salt, the structure may show the parent alone. Read-outs that look alike come from different tables or passages of the source.
Key:
[1] = test system: pressor response to epinephrine and/or nor-epinephrine; assay: Adrenergic Blockage (AB); type: in vivo; conditions: Canis lupus familiaris; intravenous, dog; read-out: AB dog MED
[2] = test system: conditioned avoidance response; assay: Rat Conditioned Avoidance Response (CAR), major tranquilizer; type: in vivo; conditions: for ED50: po, read-out: CAR rat ED50
[3] = test system: phenyl-p-benzoquinone writhing; assay: Phenylquinone Writhing (PQW), analgesic; type: in vivo; conditions: po, read-out: PQW mouse ED50
blood pressure = assay: Hypotensive (Hypo): blood pressure in conscious rats; type: in vivo; conditions: Rattus norvegicus, oral dose, read-out: Hypo rat MED
[4] = test system: conflict (approach-avoidance); assay: Rat Conflict (Approach-Avoidance) Test (Conf), minor tranquilizer; type: in vivo; conditions: for minor tranquilizing (anxiolytic) activity: in words
locomotor activity = assay: Decreased Locomotor Activity (LMA), sedative; type: in vivo, mouse; conditions: for minimal effective dose: po, read-out: LMA mouse MED
[5] = U.S. Pat. No. 3,657,254; cited from earlier work
[6] = test system: conflict (approach-avoidance); conditions: in words, background statement; cited from earlier work

c1ccc(N2c3ccccc3[C@@H]3CN(CC4CCCC4)CC[C@H]32)cc1 (racemic) [compound 2 of Table II, (±)-trans-2-(cyclopentylmethyl)-2,3,4,4a,5,9b-hexahydro-5-phenyl-1H-pyrido[4,3-b]indole]
minimal effective dose [1]: 0.03 mg/kg
major tranquilizing (antipsychotic) activity ([2]; in words): major tranquilizer (antipsychotic) activity
ED50 ([2]; rat): 5 mg/kg
ED50 ([3]; mouse): 1 mg/kg
minimal effective dose (blood pressure): 10 mg/kg
Conf rat MED ([4]; po, rat): I
minimal effective dose (locomotor activity; mouse): 10 mg/kg

Cl.c1ccc(N2c3ccccc3[C@@H]3CN(CC45CC6CC(CC(C6)C4)C5)CC[C@H]32)cc1 (racemic) [compound 4 of Table II, (±)-trans-2-(1-adamantylmethyl)-2,3,4,4a,5,9b-hexahydro-5-phenyl-1H-pyrido[4,3-b]indole, hydrochloride]
minimal effective dose [1]: > 1 mg/kg
major tranquilizing (antipsychotic) activity ([2]; in words): exhibit major tranquilizing (antipsychotic) activity
ED50 ([2]; rat): 50 mg/kg
ED50 ([3]; mouse): 19 mg/kg
minor tranquilizing (anxiolytic) activity [4]: exhibit minor tranquilizing (anxiolytic) activity at doses which are not sedating
minimal effective dose ([4]; po, rat, read-out: Conf rat MED): 10 mg/kg
minimal effective dose ([4]; po, rat, comparison table, read-out: Rat Conf.): 10 mg/kg
minimal effective dose (locomotor activity; mouse): 30 mg/kg

Cl.c1ccc(N2c3ccccc3[C@@H]3CN(CC4C5CC6CC(C5)CC4C6)CC[C@H]32)cc1 (mixture of isomers) [compound 14 of Table II, (±)-trans-2-(2-adamantylmethyl)-2,3,4,4a,5,9b-hexahydro-5-phenyl-1H-pyrido[4,3-b]indole, hydrochloride]
major tranquilizing (antipsychotic) activity ([2]; in words): exhibit major tranquilizing (antipsychotic) activity
ED50 ([3]; mouse): 27 mg/kg
minor tranquilizing (anxiolytic) activity [4]: exhibit minor tranquilizing (anxiolytic) activity at doses which are not sedating
Conf rat, active dose ([4]; po, rat, ** active at this dose, MED not yet determined): 10 mg/kg
minimal effective dose (locomotor activity; mouse): 2 mg/kg

c1ccc(N2c3ccccc3[C@@H]3CN(CC4CCCCC4)CC[C@H]32)cc1 (relative stereo)
minimal effective dose [1]: 0.03 mg/kg
ED50 ([2]; rat): 20 mg/kg
ED50 ([3]; mouse): 4 mg/kg
minimal effective dose (blood pressure): 10 mg/kg
Conf rat MED ([4]; po, rat): I
minimal effective dose (locomotor activity; mouse): 3 mg/kg

CC12CCC(CN3CC[C@@H]4[C@@H](C3)c3ccccc3N4c3ccccc3)(CC1)CC2 (relative stereo)
ED50 ([3]; mouse): 80 mg/kg
minimal effective dose (locomotor activity; mouse): 30 mg/kg

CC(Cl)=CCN1CC[C@@H]2[C@@H](C1)c1ccccc1N2c1ccccc1 (relative stereo)
ED50 ([3]; mouse): 2 mg/kg
minimal effective dose (locomotor activity; mouse): 1 mg/kg

c1ccc(CCN2CC[C@@H]3[C@@H](C2)c2ccccc2N3c2ccccc2)cc1 (relative stereo)
ED50 ([3]; mouse): 2 mg/kg
minimal effective dose (locomotor activity; mouse): 10 mg/kg

CC12C=CC(CN3CC[C@@H]4[C@@H](C3)c3ccccc3N4c3ccccc3)(CC1)CC2 (relative stereo)
ED50 ([3]; mouse): 14 mg/kg
minimal effective dose (locomotor activity; mouse): 30 mg/kg

C1=CCC(CN2CC[C@@H]3[C@@H](C2)c2ccccc2N3c2ccccc2)CC1 (relative stereo)
ED50 ([3]; mouse): 2 mg/kg
minimal effective dose (locomotor activity; mouse): 3 mg/kg

Cc1ccc2c(c1)[C@@H]1CN(C)CC[C@@H]1N2 (relative stereo) [2,8-dimethyl-2,3,4,4a,5,9b-hexahydro-1H-pyrido[4,3-b]]indole]
mechanism of action [5]: adrenergic blockade
psychotropic effects [5]: neuroleptic, antidepressive, and energizing effects

c1ccc(N2c3ccccc3[C@@H]3CN(C[C@H]4[C@@H]5CCCC[C@@H]54)CC[C@H]32)cc1 (relative stereo) [compound 9 of Table II, (±)-trans-2,3,4,4a,5,9b-hexahydro-2-(exo-7-norcarylmethyl)-5-phenyl-1H-pyrido[4,3-b]indole, hydrochloride]
ED50 ([3]; mouse): 1 mg/kg
reducing locomotor activity (locomotor activity; in words): potency in reducing locomotor activity
minimal effective dose (locomotor activity; mouse): 0.1 mg/kg

CC(=O)Oc1ccccc1C(=O)O [aspirin, reference compound]
ED50 ([3]; Mus musculus): 94 mg/kg

CN(C)CCCN1c2ccccc2Sc2ccc(Cl)cc21 [chlorpromazine, reference compound]
ED50 ([2]; Rattus norvegicus): 6 mg/kg
Conf rat MED ([4]; rat, in vivo, po): I
minimal effective dose (locomotor activity; Mus musculus): 2 to 10 mg/kg

COc1ccc2c3c1O[C@H]1[C@@H](O)C=C[C@H]4[C@@H](C2)N(C)CC[C@@]341 [codeine phosphate, reference compound]
ED50 ([3]; Mus musculus): 19 mg/kg

c1ccc(N2c3ccccc3[C@@H]3CN(CC4CCC4)CC[C@H]32)cc1 [compound of Example 2, (+)-trans-2-(cyclobutylmethyl)-2,3,4,4a,5,9b-hexahydro-5-phenyl-1H-pyrido[4,3-b]indole]
ED50 ([2]; Rattus norvegicus): 4 mg/kg
major tranquilizing (antipsychotic) activity ([2]; rat, in vivo): major tranquilizer (antipsychotic) activity
minimal effective dose (blood pressure): 3 mg/kg
Conf rat MED ([4]; rat, in vivo, po): I
minimal effective dose (locomotor activity; Mus musculus): 3 mg/kg

CN1C(=O)CN=C(c2ccccc2)c2cc(Cl)ccc21 [diazepam, reference compound]
effect in conflict test [6]: apparent decreased fear in the test animals
minimal effective dose ([4]; Rattus norvegicus, po, read-out: Conf rat MED, with ataxia): 3 to 10 mg/kg
minimal effective dose ([4]; Rattus norvegicus, po, read-out: Rat Conf.): 3 to 10 mg/kg
minimal effective dose (locomotor activity; Mus musculus): 3 to 10 mg/kg

CCCC(C)(COC(N)=O)COC(N)=O [meprobamate]
effect in conflict test [6]: apparent decreased fear in the test animals
